From PMC10382584, “Macrocyclization of linear molecules by deep learning to facilitate macrocyclic drug candidates discovery” (Nature Communications, 2023)

Columns and labels:
Experiment in all cases: biochemical
Design in all cases: DiscoveRx KINOMEscan competition binding, percent of DMSO control signal at 100 nM
Settings in all cases: read-out: Fig. 4a / Percent Control / Compound 1; percent of DMSO control, competition binding
[1] = target: T1, RSK2(Kin.Dom.1-N-terminal) (Homo sapiens, UniProt P51812)
T1 construct: gene RPS6KA3; Kin.Dom.1-N-terminal

TRKB = target: T2, TRKB (Homo sapiens, UniProt Q16620)
T2 construct: gene NTRK2

FGR = FGR (Homo sapiens, UniProt P09769)
PLK4 = PLK4 (Homo sapiens, UniProt O00444)
EPHA4 = EPHA4 (Homo sapiens, UniProt P54764)
RET(M918T) = RET(M918T) (Homo sapiens, UniProt P07949, M918T)
EPHB3 = EPHB3 (Homo sapiens, UniProt P54753)
[2] = target: T3, TYK2(JH1domain-catalytic) (Homo sapiens, UniProt P29597)
T3 construct: JH1domain-catalytic
T3 sequence (P29597 whole entry): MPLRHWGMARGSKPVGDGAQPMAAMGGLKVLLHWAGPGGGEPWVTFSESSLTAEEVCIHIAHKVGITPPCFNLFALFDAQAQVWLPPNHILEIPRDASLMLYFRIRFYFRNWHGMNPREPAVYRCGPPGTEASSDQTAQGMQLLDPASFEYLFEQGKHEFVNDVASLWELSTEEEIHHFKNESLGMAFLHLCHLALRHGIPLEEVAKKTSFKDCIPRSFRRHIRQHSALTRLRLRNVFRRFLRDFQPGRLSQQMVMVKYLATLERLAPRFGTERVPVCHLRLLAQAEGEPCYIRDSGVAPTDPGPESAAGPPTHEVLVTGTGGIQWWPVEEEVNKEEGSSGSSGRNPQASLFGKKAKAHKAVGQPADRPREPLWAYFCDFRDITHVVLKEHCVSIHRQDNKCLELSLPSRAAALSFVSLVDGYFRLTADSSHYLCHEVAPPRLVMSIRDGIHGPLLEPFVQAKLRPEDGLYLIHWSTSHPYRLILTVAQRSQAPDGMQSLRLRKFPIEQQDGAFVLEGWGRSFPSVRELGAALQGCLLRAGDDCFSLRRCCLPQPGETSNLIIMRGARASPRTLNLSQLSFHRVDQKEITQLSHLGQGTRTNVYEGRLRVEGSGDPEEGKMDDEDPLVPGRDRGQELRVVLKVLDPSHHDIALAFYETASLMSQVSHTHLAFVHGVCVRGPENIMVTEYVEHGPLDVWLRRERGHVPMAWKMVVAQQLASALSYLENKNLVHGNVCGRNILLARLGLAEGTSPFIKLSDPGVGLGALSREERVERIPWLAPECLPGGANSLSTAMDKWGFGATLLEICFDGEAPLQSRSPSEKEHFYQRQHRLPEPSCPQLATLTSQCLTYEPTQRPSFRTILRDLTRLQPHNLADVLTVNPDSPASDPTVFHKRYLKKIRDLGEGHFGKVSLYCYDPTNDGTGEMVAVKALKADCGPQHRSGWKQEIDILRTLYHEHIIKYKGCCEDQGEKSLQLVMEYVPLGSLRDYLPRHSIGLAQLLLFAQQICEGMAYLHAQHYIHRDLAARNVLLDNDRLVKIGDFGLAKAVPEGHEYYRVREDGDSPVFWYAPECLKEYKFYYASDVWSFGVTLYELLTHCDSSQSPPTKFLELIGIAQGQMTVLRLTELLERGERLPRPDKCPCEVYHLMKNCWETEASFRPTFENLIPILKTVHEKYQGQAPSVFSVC

PRKG1 = PRKG1 (Homo sapiens, UniProt Q13976)
Chain of PRKG1 (Q13976 whole entry): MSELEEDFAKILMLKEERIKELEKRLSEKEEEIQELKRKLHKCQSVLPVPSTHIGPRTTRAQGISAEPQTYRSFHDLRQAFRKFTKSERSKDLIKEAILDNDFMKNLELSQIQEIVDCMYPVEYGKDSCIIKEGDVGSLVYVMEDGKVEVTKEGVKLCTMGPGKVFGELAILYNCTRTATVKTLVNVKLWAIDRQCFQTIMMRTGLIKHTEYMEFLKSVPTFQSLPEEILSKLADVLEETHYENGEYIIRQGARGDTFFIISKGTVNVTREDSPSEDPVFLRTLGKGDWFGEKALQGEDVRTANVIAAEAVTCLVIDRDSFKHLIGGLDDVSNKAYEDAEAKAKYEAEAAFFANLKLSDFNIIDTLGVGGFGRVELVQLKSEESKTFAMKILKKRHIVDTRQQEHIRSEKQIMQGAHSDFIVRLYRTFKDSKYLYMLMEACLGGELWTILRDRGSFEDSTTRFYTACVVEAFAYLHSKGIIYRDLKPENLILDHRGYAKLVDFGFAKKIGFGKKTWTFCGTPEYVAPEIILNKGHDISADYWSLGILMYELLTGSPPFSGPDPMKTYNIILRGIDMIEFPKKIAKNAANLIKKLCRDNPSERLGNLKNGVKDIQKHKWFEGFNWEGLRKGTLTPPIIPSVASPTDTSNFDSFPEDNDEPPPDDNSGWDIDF

PAK3 = PAK3 (Homo sapiens, UniProt O75914)
Chain of PAK3 (O75914 whole entry): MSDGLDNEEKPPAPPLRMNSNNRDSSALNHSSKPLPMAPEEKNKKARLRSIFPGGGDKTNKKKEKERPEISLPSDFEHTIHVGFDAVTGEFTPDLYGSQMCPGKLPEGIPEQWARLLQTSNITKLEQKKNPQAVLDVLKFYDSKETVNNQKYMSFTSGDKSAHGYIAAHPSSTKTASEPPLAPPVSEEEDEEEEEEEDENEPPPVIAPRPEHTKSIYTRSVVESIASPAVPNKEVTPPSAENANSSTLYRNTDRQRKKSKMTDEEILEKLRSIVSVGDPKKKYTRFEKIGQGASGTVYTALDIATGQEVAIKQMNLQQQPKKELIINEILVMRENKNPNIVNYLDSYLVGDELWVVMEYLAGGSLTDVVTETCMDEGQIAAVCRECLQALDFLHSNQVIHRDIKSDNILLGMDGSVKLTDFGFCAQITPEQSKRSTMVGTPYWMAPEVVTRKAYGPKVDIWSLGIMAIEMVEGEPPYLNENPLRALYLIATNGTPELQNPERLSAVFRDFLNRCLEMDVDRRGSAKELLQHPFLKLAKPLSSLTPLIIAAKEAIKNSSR

RET = RET (Homo sapiens, UniProt P07949)
PRKG2 = PRKG2 (Homo sapiens, UniProt Q13237)
MYLK4 = MYLK4 (Homo sapiens, UniProt Q86YV6)
Chain of MYLK4 (Q86YV6 whole entry): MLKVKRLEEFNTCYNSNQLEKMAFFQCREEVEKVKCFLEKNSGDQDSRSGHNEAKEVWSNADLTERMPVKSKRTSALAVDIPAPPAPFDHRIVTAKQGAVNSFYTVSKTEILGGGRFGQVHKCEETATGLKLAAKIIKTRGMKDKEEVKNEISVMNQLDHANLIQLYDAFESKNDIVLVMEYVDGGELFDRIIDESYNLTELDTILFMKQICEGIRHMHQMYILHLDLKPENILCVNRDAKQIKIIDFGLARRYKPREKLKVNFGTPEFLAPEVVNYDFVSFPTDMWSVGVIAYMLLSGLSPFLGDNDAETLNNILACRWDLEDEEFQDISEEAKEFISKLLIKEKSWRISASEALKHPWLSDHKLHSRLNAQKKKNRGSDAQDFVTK

PAK2 = PAK2 (Homo sapiens, UniProt Q13177)
RIPK4 = RIPK4 (Homo sapiens, UniProt P57078)
PIKFYVE = PIKFYVE (Homo sapiens, UniProt Q9Y2I7)
TYRO3 = TYRO3 (Homo sapiens, UniProt Q06418)
PIP5K2B = target: T4, PIP5K2B (Homo sapiens, UniProt P78356)
T4 construct: gene PIP4K2B
T4 sequence (P78356 whole entry): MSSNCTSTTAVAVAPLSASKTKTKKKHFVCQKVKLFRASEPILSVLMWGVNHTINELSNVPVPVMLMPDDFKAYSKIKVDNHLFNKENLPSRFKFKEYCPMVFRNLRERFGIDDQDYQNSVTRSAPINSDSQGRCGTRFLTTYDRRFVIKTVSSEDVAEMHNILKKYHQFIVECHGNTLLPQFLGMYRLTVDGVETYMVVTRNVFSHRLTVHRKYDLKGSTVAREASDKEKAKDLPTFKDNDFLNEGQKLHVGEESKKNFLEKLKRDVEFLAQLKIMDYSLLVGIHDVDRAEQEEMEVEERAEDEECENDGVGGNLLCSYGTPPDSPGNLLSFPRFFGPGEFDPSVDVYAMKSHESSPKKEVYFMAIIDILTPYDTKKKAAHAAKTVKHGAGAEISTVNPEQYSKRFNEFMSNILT

TSSK1B = TSSK1B (Homo sapiens, UniProt Q9BXA7)
ERK1 = target: T5, ERK1 (Homo sapiens, UniProt P27361)
T5 construct: gene MAPK3

MST4 = target: T6, MST4 (Homo sapiens, UniProt Q9P289)
T6 construct: gene STK26

CDC2L5 = target: T7, CDC2L5 (Homo sapiens, UniProt Q14004)
T7 construct: gene CDK13
T7 sequence (Q14004 whole entry): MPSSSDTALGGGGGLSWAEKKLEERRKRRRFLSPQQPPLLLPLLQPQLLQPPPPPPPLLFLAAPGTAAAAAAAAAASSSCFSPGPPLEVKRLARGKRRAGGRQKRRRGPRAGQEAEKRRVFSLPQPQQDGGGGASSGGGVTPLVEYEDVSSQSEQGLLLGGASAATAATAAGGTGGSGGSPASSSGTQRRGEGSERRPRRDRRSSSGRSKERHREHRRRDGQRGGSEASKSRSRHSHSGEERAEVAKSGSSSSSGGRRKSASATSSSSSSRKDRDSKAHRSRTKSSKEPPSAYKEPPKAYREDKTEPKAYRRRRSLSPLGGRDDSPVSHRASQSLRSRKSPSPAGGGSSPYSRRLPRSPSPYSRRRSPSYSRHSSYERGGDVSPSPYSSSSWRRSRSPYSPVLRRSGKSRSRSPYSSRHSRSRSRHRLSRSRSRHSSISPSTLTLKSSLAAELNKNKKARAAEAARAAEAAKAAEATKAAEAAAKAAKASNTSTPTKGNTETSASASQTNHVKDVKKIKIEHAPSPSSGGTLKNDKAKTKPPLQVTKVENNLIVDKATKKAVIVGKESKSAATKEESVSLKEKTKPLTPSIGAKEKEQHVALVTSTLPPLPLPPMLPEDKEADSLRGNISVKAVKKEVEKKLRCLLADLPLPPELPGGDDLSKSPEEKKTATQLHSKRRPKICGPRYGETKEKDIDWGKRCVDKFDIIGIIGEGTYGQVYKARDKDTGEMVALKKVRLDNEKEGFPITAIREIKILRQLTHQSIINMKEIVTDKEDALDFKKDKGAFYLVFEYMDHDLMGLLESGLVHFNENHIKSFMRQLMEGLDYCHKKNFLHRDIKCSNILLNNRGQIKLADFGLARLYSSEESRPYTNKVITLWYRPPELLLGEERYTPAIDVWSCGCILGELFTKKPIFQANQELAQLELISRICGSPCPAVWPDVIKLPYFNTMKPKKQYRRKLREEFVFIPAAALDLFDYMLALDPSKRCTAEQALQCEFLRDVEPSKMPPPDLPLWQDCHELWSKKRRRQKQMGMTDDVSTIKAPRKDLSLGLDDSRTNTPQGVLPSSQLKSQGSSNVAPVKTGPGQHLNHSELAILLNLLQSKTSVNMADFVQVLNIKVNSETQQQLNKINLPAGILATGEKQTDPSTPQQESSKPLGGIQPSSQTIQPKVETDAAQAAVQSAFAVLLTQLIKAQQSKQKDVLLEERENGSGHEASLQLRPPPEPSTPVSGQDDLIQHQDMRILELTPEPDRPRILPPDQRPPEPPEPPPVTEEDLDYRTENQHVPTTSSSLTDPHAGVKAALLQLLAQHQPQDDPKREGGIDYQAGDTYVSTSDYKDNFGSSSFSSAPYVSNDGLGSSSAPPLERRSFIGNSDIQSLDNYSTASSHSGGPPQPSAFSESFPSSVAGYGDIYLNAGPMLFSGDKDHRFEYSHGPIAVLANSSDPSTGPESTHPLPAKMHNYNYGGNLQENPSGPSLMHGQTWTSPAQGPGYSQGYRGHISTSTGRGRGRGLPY

ADCK3 = target: T8, ADCK3 (Homo sapiens, UniProt Q8NI60)
T8 construct: gene COQ8A

KIT = KIT (Homo sapiens, UniProt P10721)
MAP3K3 = MAP3K3 (Homo sapiens, UniProt Q99759)
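Note: KINOMEscan kinase panel binding assay, signal normalized between DMSO as 100% and a positive control compound as 0%.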

Cc1cnc2nc1Nc1cccc(c1)COCc1cc(ccc1OCCN1CCCC1)N2 [Compound 1] gave a remaining binding at 0.1 µM [1] of 56%, a remaining binding at 0.1 µM (TRKB) of 40% and a remaining binding at 0.1 µM (FGR) of 100%. The remaining binding at 0.1 µM (PLK4) was 96%, the remaining binding at 0.1 µM (EPHA4) was 100% and the remaining binding at 0.1 µM (RET(M918T)) was 96%. The remaining binding at 0.1 µM (EPHB3) was 100%, the remaining binding at 0.1 µM [2] was 27% and the remaining binding at 0.1 µM (PRKG1) was 100%. For the same molecule, the remaining binding at 0.1 µM (PAK3) was 100%, the remaining binding at 0.1 µM (RET) was 96% and the remaining binding at 0.1 µM (PRKG2) was 47%. The remaining binding at 0.1 µM (MYLK4) was 84%, the remaining binding at 0.1 µM (PAK2) was 100% and the remaining binding at 0.1 µM (RIPK4) was 65%. The remaining binding at 0.1 µM (PIKFYVE) was 100%, the remaining binding at 0.1 µM (TYRO3) was 55% and the remaining binding at 0.1 µM (PIP5K2B) was 96%. It also gave a remaining binding at 0.1 µM (TSSK1B) of 92%, a remaining binding at 0.1 µM (ERK1) of 100% and a remaining binding at 0.1 µM (MST4) of 100%. It also gave a remaining binding at 0.1 µM (CDC2L5) of 81%, a remaining binding at 0.1 µM (ADCK3) of 96% and a remaining binding at 0.1 µM (KIT) of 57%. The remaining binding at 0.1 µM (MAP3K3) was 74%.
